Laboratory results as given in patent publication US20240158466A1, “PEGYLATED P-SELECTIN INHIBITORS” (Beth Israel Deaconess Medical Center, Inc., priority 2021, published 2024).
Values belong to the molecule of their own block, whether it stands above or below them.

Tests used:
P-selectin [1] = target: T1, P-selectin (Homo sapiens, UniProt P16109); settings: synthetic P-selectin antagonists, literature refs 48,49; cited from earlier work
T1 sequence (P16109 42-830): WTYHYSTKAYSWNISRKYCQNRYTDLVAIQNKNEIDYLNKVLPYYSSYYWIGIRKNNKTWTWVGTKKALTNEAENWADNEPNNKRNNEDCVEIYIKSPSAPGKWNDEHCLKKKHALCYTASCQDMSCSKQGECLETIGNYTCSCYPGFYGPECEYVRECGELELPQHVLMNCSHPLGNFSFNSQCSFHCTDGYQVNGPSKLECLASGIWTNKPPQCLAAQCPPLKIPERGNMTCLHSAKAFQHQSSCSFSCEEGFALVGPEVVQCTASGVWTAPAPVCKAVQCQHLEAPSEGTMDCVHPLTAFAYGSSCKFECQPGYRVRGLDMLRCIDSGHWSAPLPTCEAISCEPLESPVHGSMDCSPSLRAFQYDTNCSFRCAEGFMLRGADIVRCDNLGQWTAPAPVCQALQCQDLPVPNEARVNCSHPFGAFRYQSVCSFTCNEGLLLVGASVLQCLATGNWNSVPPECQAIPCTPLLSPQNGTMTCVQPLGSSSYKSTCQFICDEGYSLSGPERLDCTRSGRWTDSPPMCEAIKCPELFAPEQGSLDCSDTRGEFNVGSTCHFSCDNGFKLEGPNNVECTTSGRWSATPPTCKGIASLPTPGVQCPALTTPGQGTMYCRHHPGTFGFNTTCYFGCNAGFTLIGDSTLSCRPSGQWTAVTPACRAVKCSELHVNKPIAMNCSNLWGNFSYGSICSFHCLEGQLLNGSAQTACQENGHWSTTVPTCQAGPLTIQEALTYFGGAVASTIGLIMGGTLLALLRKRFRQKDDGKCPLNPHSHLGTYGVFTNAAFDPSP

vein recanalization = settings: primate models; cited from earlier work
[2] = tested on: platelet-monocyte aggregation; settings: humans; cited from earlier work
thrombus = settings: mice; cited from earlier work
vein wall injury = settings: rats; cited from earlier work
[3] = target: P-selectin on activated human platelets (human) (UniProt P16109); assay: cell-based or functional assay
[4] = target: P-selectin on activated mouse platelets (mouse) (UniProt Q01102); assay: cell-based or functional assay
venous thrombus = assay: Murine model of non-occlusive venous thrombosis (electrolytic injury of inferior vena cava); type: in vivo, C57BL/6 mice
Protocol: Enoxaparin was administered subcutaneously (6 mg/kg) 4 hours prior and 24 hours after electrolytic injury as a clinically relevant control. […] Venous side branches were ligated or cauterized, while posterior branches were left patent. A 25-gauge stainless steel needle, attached to a silver-coated copper wire was inserted into the exposed caudal vena cava and positioned against the anterior wall (anode). A second wire was implanted subcutaneously to complete the circuit (cathode) and a 250 μAmps current applied for 15 min. Subsequently, the needle was removed and a cotton swab held in gentle contact with the puncture site to prevent bleeding. The vena cava and associated thrombus, immediately below the renal veins to just above the bifurcation, was excised 48 hours after injury for determination of wet thrombus weight and histological examination. Specimens were fixed overnight in 10% neutral buffered formalin, processed for paraffin embedding, and 5 μm sections stained with hematoxylin and eosin (H&E) or antibodies specific to neutrophils (Ly-6G, BD Biosciences) and monocytes (CD68, Abeam, Cambridge, MA). The circumference of the vein wall was imaged at 20× magnification and leukocyte infiltration was quantified in 3 representative animals/group, 5 to 10 sections/tissue sample.

hemostasis = assay: Tail vein transection bleeding time; type: in vivo, mouse; settings: PG-6 8 μmol/kg or enoxaparin (LMWH) 6 mg/kg intravenous, 5 min prior to transection
Protocol: Hemostasis was assessed using a tail vein transection model to determine bleeding time.^63 Mice were anesthetized with ketamine and xylazine by intraperitoneal injection and placed on a warming mat at 37° C. Sterile saline, enoxaparin (6 mg/kg), or PG-6 in 125 μL of sterile saline was injected into the penile vein. Five minutes after administration of test compound, the lateral tail vein was transected with a number 11 scalpel blade at a tail width of 2.3 mm and immediately submerged in 37° C. phosphate buffered saline. The bleeding time was determined at that instant when bleeding had ceased for 30 seconds. Animals were excluded if arterial bleeding was present.

P-selectin [5] = target: T1, P-selectin; settings: cited from earlier work
[6] = high affinity biologics; cited from earlier work

P-selectin on activated mouse platelets (mouse), sequence (Q01102 42-768): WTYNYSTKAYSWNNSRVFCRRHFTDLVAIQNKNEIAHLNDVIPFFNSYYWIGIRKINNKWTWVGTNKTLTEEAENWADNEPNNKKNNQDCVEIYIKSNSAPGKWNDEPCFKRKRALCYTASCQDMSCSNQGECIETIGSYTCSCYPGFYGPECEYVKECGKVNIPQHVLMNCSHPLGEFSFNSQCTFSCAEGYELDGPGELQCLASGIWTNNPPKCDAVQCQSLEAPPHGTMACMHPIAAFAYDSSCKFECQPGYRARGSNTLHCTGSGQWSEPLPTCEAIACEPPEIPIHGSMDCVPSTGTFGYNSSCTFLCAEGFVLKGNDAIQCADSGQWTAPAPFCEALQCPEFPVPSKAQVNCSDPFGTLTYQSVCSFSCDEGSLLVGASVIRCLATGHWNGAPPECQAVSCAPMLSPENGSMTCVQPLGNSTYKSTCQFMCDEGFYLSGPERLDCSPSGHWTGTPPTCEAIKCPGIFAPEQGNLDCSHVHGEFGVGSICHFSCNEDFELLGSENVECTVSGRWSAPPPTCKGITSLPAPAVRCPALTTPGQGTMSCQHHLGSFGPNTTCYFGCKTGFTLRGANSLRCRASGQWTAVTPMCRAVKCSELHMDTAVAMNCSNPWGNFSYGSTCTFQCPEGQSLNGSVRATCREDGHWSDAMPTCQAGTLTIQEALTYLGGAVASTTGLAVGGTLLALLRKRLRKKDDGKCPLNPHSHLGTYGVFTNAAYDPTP

Molecule: C[C@@H]1O[C@@H](O[C@@H]2[C@@H](NC(=O)c3cc(=O)[nH]c(=O)[nH]3)C[C@@H](C(=O)NCCNC(=O)COCCOCC(=O)Nc3cc(S(=O)(=O)O)cc4cc(S(=O)(=O)O)cc(S(=O)(=O)O)c34)C[C@H]2O[C@@H]2O[C@H](CO)[C@H](O)[C@H](O[C@@H](CC3CCCCC3)C(=O)O)[C@H]2OC(=O)c2ccccc2)[C@@H](O)[C@H](O)[C@@H]1O [GMI-1070]
- IC50 (P-selectin [1]): 423 µM

Molecule: O=C(O)c1c(O)c(C2(c3ccc(Cl)cc3)CC2)nc2c(C(F)(F)F)cccc12 [PSI-421, 2-[1-(4-chlorophenyl)cyclopropyl]-3-hydroxy-8-(trifluoromethyl)quinoline-4-carboxylic acid]
- vein recanalization (vein recanalization): enhanced

Molecule: O=C(O)c1c(O)c(Cc2ccc(Cl)cc2)nc2c3c(ccc12)CCCC3 [PSI-697]
- inhibition of platelet-monocyte aggregation in a phase I trial [2]: failed to inhibit
- thrombus weight (thrombus): reduced
- wall stiffness, neointima formation, extravasation of inflammatory cells (vein wall injury): decreased
- vein recanalization (vein recanalization): enhanced

- human platelet-monocyte aggregates (flow cytometry, whole blood, PG-6 120 uM) [3]: 29 % reduction
- human platelet-neutrophil aggregates (flow cytometry, whole blood, PG-6 120 uM) [3]: 42 % reduction
- murine platelet-monocyte aggregates (flow cytometry, whole blood, PG-6 120 uM) [4]: 45 % reduction
- murine platelet-neutrophil aggregates (flow cytometry, whole blood, PG-6 120 uM) [4]: 38 % reduction
Molecule: PEG40-GSnP-6 (PG-6) (peptide)

- tail vein transection bleeding time (hemostasis): prolonged
- tail vein transection bleeding time (hemostasis; listed as LMWH): significant increase
Molecule: enoxaparin
- thrombus formation / thrombus weight vs saline vehicle (venous thrombus; 48 h after electrolytic injury, PG-6 8 μmol/kg IV, LMWH 6 mg/kg SC): significant reduction
- infiltrating CD68+ macrophages in vein wall (venous thrombus; 48 h after thrombus induction): significant reduction
- infiltrating Ly6G+ neutrophils in vein wall (venous thrombus; 48 h after thrombus induction): significant reduction

B1: PSGL-1: P-selectin glycoprotein ligand-1, native cognate ligand of P-selectin (protein, UniProt Q14242 42-412, looked up)
P-selectin glycoprotein …: QATEYEYLDYDFLPETEPPEMLRNSTDTTPLTGPGTPESTTVEPAARRSTGLDAGGAVTELTTELANMGNLSTDSAAMEIQTTQPAATEAQTTQPVPTEAQTTPLAATEAQTTRLTATEAQTTPLAATEAQTTPPAATEAQTTQPTGLEAQTTAPAAMEAQTTAPAAMEAQTTPPAAMEAQTTQTTAMEAQTTAPEATEAQTTQPTATEAQTTPLAAMEALSTEPSATEALSMEPTTKRGLFIPFSVSSVTHKGIPMAASNLSVNYPVGAPDHISVKQCLLAILILALVATIFFVCTVVLAVRLSRKGHMYPVRNYSPTEMVCISSLLPDGGEGPSATANGGLSKAKSPGLTPEPREDREGDDLTLHSFLP
- Kd (P-selectin [5]; reported values): 0.07 to 0.3 µM

B2: crizanlizumab: the only approved P-selectin inhibitor, an antibody (antibody, chains of the INN, looked up, V domains shown)
VH: QVQLVQSGAEVKKPGASVKVSCKVSGYTFTSYDINWVRQAPGKGLEWMGWIYPGDGSIKYNEKFKGRVTMTVDKSTDTAYMELSSLRSEDTAVYYCARRGEYGNYEGAMDYWGQGTLVTVSS
VL: DIQMTQSPSSLSASVGDRVTITCKASQSVDYDGHSYMNWYQQKPGKAPKLLIYAASNLESGVPSRFSGSGSGTDFTLTISSLQPEDFATYYCQQSDENPLTFGGGTKVEIK
- Kd for P-selectin (in words) (P-selectin [5]; approved antibody): low nanomolar range
- t1/2 [6]: 10.6 days
